Test systems include EKVX; HL-60; Malme-3M; OVCAR-3; SK-MEL-28; UACC-257; OVCAR-8; SK-MEL-2; IGROV-1; SR; HOP-92; NCI-H460; M14; HOP-62; SNB-75; CCRF-CEM; MOLT-4; SNB-19; RXF 393; U-251.
What all share (assay): NCI anticancer screen, dose series, 48 h

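Values below derive from 48-hour exposures of cells grown in 96-well plates, with endpoints linearly interpolated between the two concentrations bracketing the appropriate inhibition level. GI50 marks 50% less growth.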 The source made the active and inactive calls. Cut-off read from the data, not from the text of the source: active = GI50 up to about 1.1 µM and inactive = higher.

Take `O=C(CC1=Nc2nnc(CCCCCCCc3nnc4n3C(=O)C(CC(=O)c3ccc5ccccc5c3)=N4)n2C1=O)c1ccc2ccccc2c1`: the GI50 with EKVX was 63.5 µM (inactive); with HL-60, > 100 µM (inactive); in the assay with Malme-3M it was > 100 µM (inactive); in the assay on OVCAR-3 it was > 100 µM (inactive); with SK-MEL-28, > 100 µM (inactive); with UACC-257 it was > 100 µM (inactive). In addition, the GI50 was > 100 µM (inactive) with OVCAR-8; > 100 µM (inactive) in the assay with SK-MEL-2; 66.2 µM (inactive) in the assay with IGROV-1; > 100 µM (inactive) in the assay on SR; > 100 µM (inactive) in the assay with HOP-92; > 100 µM (inactive) in the assay with NCI-H460. In addition, the GI50 in the assay with M14, in the assay with HOP-62, in the assay on SNB-75, in the assay on CCRF-CEM, in the assay on MOLT-4 and in the assay on SNB-19 was > 100 µM (inactive) throughout. Besides, the GI50 with RXF 393 and in the assay on U-251 was > 100 µM (inactive) each time.
On to `Cc1nc(Nc2ccc(Cl)cc2Cl)sc1C(=O)Nc1ccccc1`, for which the GI50 in the assay with EKVX was 84.7 µM (inactive); with HL-60, > 10 µM (inactive); in the assay with Malme-3M, > 100 µM (inactive); in the assay on OVCAR-3 it was 97.1 µM (inactive); in the assay with SK-MEL-28, > 100 µM (inactive); in the assay with UACC-257 it was 61.4 µM (inactive). Also, the GI50 with OVCAR-8 is > 100 µM (inactive); in the assay on SK-MEL-2, 39.8 µM (inactive); in the assay with IGROV-1, 63.4 µM (inactive); in the assay on SR, 28.2 µM (inactive); in the assay on HOP-92 it was 31.3 µM (inactive); with NCI-H460, 37.9 µM (inactive). For the same compound, the GI50 in the assay with M14 is 80.9 µM (inactive); with HOP-62, 81.1 µM (inactive); in the assay on SNB-75, 39 µM (inactive); with CCRF-CEM it was 34.1 µM (inactive); in the assay on MOLT-4, 10.9 µM (inactive); in the assay on SNB-19, > 100 µM (inactive). Also, the values for the GI50 in the assay on RXF 393 and in the assay with U-251 were 33.3 µM (inactive) and 25.9 µM (inactive), respectively.
For the compound `COc1cc2c(cc1OC)-c1cc(OC)c(OC)cc1[C@H]1CN3CCC[C@@]3(O)C=C21`, the GI50 in the assay on EKVX, with HL-60, in the assay with Malme-3M, in the assay with OVCAR-3, with SK-MEL-28 and in the assay with UACC-257 was < 0.0001 µM (active) in each case. For the same compound, the GI50 with OVCAR-8, with SK-MEL-2, with IGROV-1, in the assay with SR, in the assay on HOP-92 and in the assay on NCI-H460 was < 0.0001 µM (active) each time. In addition, the GI50 in the assay with M14, in the assay with HOP-62, with SNB-75, in the assay on CCRF-CEM, in the assay with MOLT-4 and in the assay on SNB-19 was < 0.0001 µM (active) throughout. Also, the GI50 is 0.01 µM (active) in the assay on RXF 393 and < 0.0001 µM (active) with U-251.
Regarding `COC(=O)C1=C(OC(=O)/C=C/c2ccc(Cl)cc2)C(C(=O)OC)[C@]2(O)[C@@H](C(=O)OC)[C@H]1C[C@@H](c1ccccc1)[C@@H]2C(=O)OC` (stereo not given in full), the GI50 in the assay with EKVX is 3.85 µM (inactive); in the assay on HL-60 it was 3.81 µM (inactive); in the assay with Malme-3M it was 4.94 µM (inactive); in the assay on OVCAR-3, 7.5 µM (inactive); in the assay with SK-MEL-28, 17.3 µM (inactive); with UACC-257, 26.2 µM (inactive). For the same compound, the GI50 is 3.95 µM (inactive) in the assay with OVCAR-8; 6.27 µM (inactive) in the assay with SK-MEL-2; 3.18 µM (inactive) in the assay with IGROV-1; 4.5 µM (inactive) in the assay with SR; 2.58 µM (inactive) in the assay with HOP-92; 4.15 µM (inactive) with NCI-H460. Also, the GI50 is 6.1 µM (inactive) in the assay with M14; > 57.4 µM (inactive) in the assay with HOP-62; 12.3 µM (inactive) with SNB-75; 3.31 µM (inactive) with CCRF-CEM; 3.76 µM (inactive) with MOLT-4; 6.65 µM (inactive) with SNB-19. Further, the GI50 with RXF 393 is 9.29 µM (inactive); in the assay on U-251 it was 4.74 µM (inactive).
On to `CN(C)CCCNC(=O)c1cc(NC(=O)c2cc(NS(=O)(=O)c3ccc4c(c3)C(=O)c3ccccc3C4=O)cn2C)cn1C`, for which the GI50 in the assay on EKVX was > 100 µM (inactive); in the assay on HL-60 it was 97.9 µM (inactive); in the assay with Malme-3M, 28.4 µM (inactive); in the assay on OVCAR-3, 95.5 µM (inactive); in the assay with SK-MEL-28, 86.5 µM (inactive); with UACC-257 it was 45.8 µM (inactive). Moreover, the GI50 in the assay on OVCAR-8 was > 100 µM (inactive); in the assay with SK-MEL-2, > 100 µM (inactive); in the assay with IGROV-1, > 100 µM (inactive); with SR it was 27 µM (inactive); in the assay on HOP-92, > 100 µM (inactive); in the assay with NCI-H460, 45 µM (inactive). The GI50 with M14 was > 100 µM (inactive); in the assay on HOP-62 it was > 100 µM (inactive); with SNB-75 it was > 100 µM (inactive); in the assay on CCRF-CEM, 31.7 µM (inactive); with MOLT-4, 24 µM (inactive); with SNB-19, 41.5 µM (inactive). Moreover, the GI50 in the assay on RXF 393 is > 100 µM (inactive); with U-251 it was 81.3 µM (inactive).
With `COC(=O)C1C2C=CC(C2)C1(C(=O)OC)[S+]([O-])CC12CCC(CC1O)C2(C)C` (stereo not given), the GI50 with EKVX, with HL-60, in the assay with Malme-3M, with OVCAR-3, with SK-MEL-28 and in the assay with UACC-257 was > 100 µM (inactive) in each case. In addition, the GI50 is > 100 µM (inactive) with OVCAR-8; > 100 µM (inactive) in the assay on SK-MEL-2; > 100 µM (inactive) with IGROV-1; 31.2 µM (inactive) with SR; > 100 µM (inactive) in the assay with HOP-92; > 100 µM (inactive) in the assay on NCI-H460. Further, the GI50 in the assay on M14, in the assay with HOP-62, in the assay on SNB-75, in the assay with CCRF-CEM, in the assay with MOLT-4 and in the assay with SNB-19 was > 100 µM (inactive) each time. Also, the GI50 with RXF 393 is 77.8 µM (inactive); in the assay on U-251, > 100 µM (inactive).
For the compound `COc1ccc(CSC2=C(C#N)C(=O)NC3(CCCCC3)S2)cc1`, the GI50 with EKVX was 54 µM (inactive); with HL-60, 3.63 µM (inactive); in the assay on Malme-3M, 54.5 µM (inactive); in the assay on OVCAR-3 it was 35.2 µM (inactive); with SK-MEL-28, > 73.6 µM (inactive); in the assay on UACC-257 it was > 81.7 µM (inactive). The GI50 with OVCAR-8 is > 59.3 µM (inactive); in the assay with SK-MEL-2, 38.6 µM (inactive); with IGROV-1, > 69.7 µM (inactive); in the assay on SR, 71.3 µM (inactive); in the assay on HOP-92, > 55.7 µM (inactive); with NCI-H460, 69 µM (inactive). Also, the GI50 in the assay on M14 is 42.2 µM (inactive); with HOP-62, 61.8 µM (inactive); with SNB-75, 62.2 µM (inactive); in the assay on CCRF-CEM, 2.66 µM (inactive); in the assay on MOLT-4, 36.9 µM (inactive); in the assay with SNB-19, 54.5 µM (inactive). Further, the GI50 with RXF 393 is 30.5 µM (inactive); with U-251, 48.4 µM (inactive).
Regarding `C[C@H]1CC(=O)C[C@@H]2CC[C@@H]3[C@H](CC[C@]4(C)C(OC(=O)c5cccc6c(=O)c7ccccc7[nH]c56)CC[C@@H]34)[C@]21C` (stereo not given in full), the GI50 in the assay with EKVX was 31.1 µM (inactive); in the assay on HL-60, 14.3 µM (inactive); with Malme-3M, 92.5 µM (inactive); with OVCAR-3 it was 47.2 µM (inactive); in the assay on SK-MEL-28, 38.2 µM (inactive); in the assay on UACC-257, 32.6 µM (inactive). The GI50 in the assay with OVCAR-8 was 23.8 µM (inactive); with SK-MEL-2 it was 28.6 µM (inactive); with IGROV-1, 38.5 µM (inactive); in the assay with SR, 4.8 µM (inactive); in the assay on HOP-92, 16 µM (inactive); with NCI-H460 it was 26.7 µM (inactive). In addition, the GI50 was 30.6 µM (inactive) in the assay on M14; 36.6 µM (inactive) with HOP-62; 31.1 µM (inactive) in the assay with SNB-75; 23.8 µM (inactive) in the assay on CCRF-CEM; 5.28 µM (inactive) in the assay on MOLT-4; > 100 µM (inactive) in the assay on SNB-19. Also, the GI50 in the assay on RXF 393 was 39.2 µM (inactive); with U-251 it was 33.1 µM (inactive).
As for `CC(C)[C@@H]1C=C(c2ccccc2)c2ccccc2C1C(C#N)(C#N)C(C)C` (stereo not given in full), the GI50 was > 100 µM (inactive) in the assay with EKVX; 31.7 µM (inactive) in the assay with HL-60; > 100 µM (inactive) with Malme-3M; 78.9 µM (inactive) with OVCAR-3; > 100 µM (inactive) in the assay with SK-MEL-28; 54.5 µM (inactive) in the assay with UACC-257. Moreover, the GI50 in the assay on OVCAR-8 was > 100 µM (inactive); in the assay on SK-MEL-2, > 100 µM (inactive); in the assay with IGROV-1, > 100 µM (inactive); in the assay on SR, 46.3 µM (inactive); with HOP-92 it was > 100 µM (inactive); in the assay with NCI-H460 it was > 100 µM (inactive). Moreover, the GI50 in the assay on M14 is > 100 µM (inactive); in the assay with HOP-62, > 100 µM (inactive); with SNB-75, > 100 µM (inactive); with CCRF-CEM it was > 100 µM (inactive); in the assay on MOLT-4, 48.6 µM (inactive); in the assay with SNB-19, > 100 µM (inactive). Also, the GI50 in the assay with RXF 393 and in the assay on U-251 was > 100 µM (inactive) in each case.
For the compound `O=C1/C(=C/c2ccccc2)CCc2ccc([N+](=O)[O-])cc21`, the GI50 with EKVX is > 91.8 µM (inactive); with HL-60, 1.86 µM (inactive); with Malme-3M it was 46.8 µM (inactive); in the assay on OVCAR-3 it was > 100 µM (inactive); in the assay on SK-MEL-28 it was > 81.8 µM (inactive); in the assay with UACC-257, 39.5 µM (inactive). In addition, the GI50 with OVCAR-8 is 82.6 µM (inactive); in the assay with SK-MEL-2 it was 13.6 µM (inactive); in the assay with IGROV-1, 72.9 µM (inactive); in the assay with SR it was 4.26 µM (inactive); in the assay with HOP-92 it was 81.5 µM (inactive); in the assay on NCI-H460 it was > 100 µM (inactive). The GI50 with M14 was 48.2 µM (inactive); in the assay on HOP-62 it was > 71.3 µM (inactive); with SNB-75 it was 37.3 µM (inactive); in the assay on CCRF-CEM, 4.13 µM (inactive); in the assay with MOLT-4, 10.8 µM (inactive); with SNB-19, 27.2 µM (inactive). For the same compound, the GI50 with RXF 393 was 23.8 µM (inactive); with U-251, 27.1 µM (inactive).
